Data from article PMC4490784, “Compensatory induction of MYC expression by sustained CDK9 inhibition via a BRD4-dependent mechanism” (eLife, 2015).

Tests used:
Test in all cases: KINOMEscan binding assay
[1] = molecular target: T1, ABL1(F317L)-phosphorylated (Homo sapiens, UniProt P00519, F317L); conditions: 1 µM i-CDK9; read-out: % Retention on Solid Support
T1 construct: purchased DiscoveRx KINOMEscan
Procedure: (§1) As there are no commercial or in-house kinase assays available for CDK3, CDK5, CDK11 and CDK13, the inhibitory abilities of i-CDK9 toward these CDKs were thus evaluated in the DiscoveRx KINOMEscan assay, which is based on a proprietary active site-directed competition-binding platform ([Fabian et al., 2005]).
(§2) The inhibitory activity of i-CDK9 for CDK1-CycB (Upstate/Millipore), CDK2-CycA (Invitrogen), CDK4-CycD1 (Novartis), CDK7-CycH-MAT1 (Invitrogen), and CDK9-CycT1 (Invitrogen) was assessed in the AlphaScreen (PerkinElmer, Inc)-based kinase assay developed at Novartis. Briefly, each CDK–cyclin pair was pre-incubated with i-CDK9 for 15 min, followed by addition of kinase substrates (ELK for CDK1 and CDK2, RB for CDK4, and CDK7tide for CDK7 and CDK9). The mixture was incubated at room temperature for additional 4–5 hr. The reaction was stopped and read on Envision (PerkinElmer, Inc). Selectivity against a large panel of over 400 kinases was evaluated using the KINOMEscan platform (DiscoveRx, CA) employing a proprietary active site-directed competition binding assay ([Fabian et al., 2005]). The assay was conducted at two different concentrations of i-CDK9 (1 and 10 µM) by DiscoveRx.

[2] = molecular target: T2, ABL1(H396P)-phosphorylated (Homo sapiens, UniProt P00519, H396P); conditions: 1 µM i-CDK9; read-out: % Retention on Solid Support
T2 construct: purchased DiscoveRx KINOMEscan
Procedure: as §1, §2

ACVR1B = molecular target: T3, ACVR1B (Homo sapiens, UniProt P36896); conditions: read-out: % Retention on Solid Support
T3 construct: purchased DiscoveRx KINOMEscan
T3 sequence (P36896 24-505): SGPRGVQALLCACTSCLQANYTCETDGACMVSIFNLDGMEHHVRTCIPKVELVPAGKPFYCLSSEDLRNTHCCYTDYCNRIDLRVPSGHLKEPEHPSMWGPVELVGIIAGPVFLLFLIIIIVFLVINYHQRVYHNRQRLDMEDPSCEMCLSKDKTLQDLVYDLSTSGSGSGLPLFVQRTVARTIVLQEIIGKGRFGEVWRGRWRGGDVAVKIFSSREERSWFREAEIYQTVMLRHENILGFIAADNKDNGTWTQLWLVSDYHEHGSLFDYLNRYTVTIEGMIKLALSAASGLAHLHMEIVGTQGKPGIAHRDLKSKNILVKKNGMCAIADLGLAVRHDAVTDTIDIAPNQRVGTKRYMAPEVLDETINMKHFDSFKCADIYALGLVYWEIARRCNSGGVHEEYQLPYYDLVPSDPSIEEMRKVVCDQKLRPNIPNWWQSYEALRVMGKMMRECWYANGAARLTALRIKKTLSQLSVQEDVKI
Procedure: as §1, §2

BIKE = molecular target: T4, BIKE (Homo sapiens, UniProt Q9NSY1); conditions: read-out: % Retention on Solid Support
T4 construct: purchased DiscoveRx KINOMEscan
Procedure: as §1, §2

CAMK2G = molecular target: T5, CAMK2G (Homo sapiens, UniProt Q13555); conditions: read-out: % Retention on Solid Support
T5 construct: purchased DiscoveRx KINOMEscan
T5 sequence (Q13555 whole entry): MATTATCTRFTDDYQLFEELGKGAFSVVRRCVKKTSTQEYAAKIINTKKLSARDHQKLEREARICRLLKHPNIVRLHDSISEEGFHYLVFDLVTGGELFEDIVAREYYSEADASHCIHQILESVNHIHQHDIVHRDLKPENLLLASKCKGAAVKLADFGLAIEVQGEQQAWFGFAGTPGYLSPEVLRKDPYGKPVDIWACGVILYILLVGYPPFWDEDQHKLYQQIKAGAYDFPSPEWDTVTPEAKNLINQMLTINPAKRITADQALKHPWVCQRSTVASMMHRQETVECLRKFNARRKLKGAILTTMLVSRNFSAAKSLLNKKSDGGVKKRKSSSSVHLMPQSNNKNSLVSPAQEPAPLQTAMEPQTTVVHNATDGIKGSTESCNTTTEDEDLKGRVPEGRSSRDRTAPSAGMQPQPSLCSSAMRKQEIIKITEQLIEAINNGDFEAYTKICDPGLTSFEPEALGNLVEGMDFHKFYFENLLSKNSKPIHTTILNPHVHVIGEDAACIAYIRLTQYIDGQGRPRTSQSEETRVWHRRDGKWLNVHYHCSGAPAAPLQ
Procedure: as §1, §2

CAMKK2 = molecular target: T6, CAMKK2 (Homo sapiens, UniProt Q96RR4); conditions: read-out: % Retention on Solid Support
T6 construct: purchased DiscoveRx KINOMEscan
Procedure: as §1, §2

CDC2L5 = molecular target: T7, CDC2L5 (Homo sapiens, UniProt Q14004); conditions: 1 µM i-CDK9
T7 construct: purchased DiscoveRx KINOMEscan
Procedure: as §1, §2

CDK13 = molecular target: T8, CDK13 (Homo sapiens, UniProt Q14004); conditions: 1 µM i-CDK9
T8 construct: purchased DiscoveRx
Procedure: as §1, §2

CDK2 = molecular target: T9, CDK2 (Homo sapiens, UniProt P24941)
T9 construct: purchased DiscoveRx KINOMEscan
Procedure: as §1, §2

CDK4-cyclinD1 = molecular target: T10, CDK4-cyclinD1 (Homo sapiens, UniProt P11802); conditions: 1 µM i-CDK9; read-out: % Retention on Solid Support
T10 construct: purchased DiscoveRx KINOMEscan
Procedure: as §1, §2

CSK = molecular target: T11, CSK (Homo sapiens, UniProt P41240)
T11 construct: purchased DiscoveRx KINOMEscan
T11 sequence (P41240 whole entry): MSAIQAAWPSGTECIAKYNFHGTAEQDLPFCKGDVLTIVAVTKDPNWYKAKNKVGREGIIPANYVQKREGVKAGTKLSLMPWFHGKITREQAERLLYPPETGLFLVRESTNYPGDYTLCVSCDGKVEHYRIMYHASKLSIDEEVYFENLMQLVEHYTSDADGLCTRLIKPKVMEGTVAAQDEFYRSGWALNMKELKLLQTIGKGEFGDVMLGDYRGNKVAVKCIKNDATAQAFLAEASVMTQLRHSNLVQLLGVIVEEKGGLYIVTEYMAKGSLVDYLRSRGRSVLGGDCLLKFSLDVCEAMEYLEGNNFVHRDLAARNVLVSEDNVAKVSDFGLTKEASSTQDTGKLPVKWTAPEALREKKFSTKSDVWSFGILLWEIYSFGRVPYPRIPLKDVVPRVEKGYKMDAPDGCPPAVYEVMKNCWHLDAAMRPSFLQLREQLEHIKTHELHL
Procedure: as §1, §2

CSNK1G3 = molecular target: T12, CSNK1G3 (Homo sapiens, UniProt Q9Y6M4)
T12 construct: purchased DiscoveRx KINOMEscan
T12 sequence (Q9Y6M4 whole entry): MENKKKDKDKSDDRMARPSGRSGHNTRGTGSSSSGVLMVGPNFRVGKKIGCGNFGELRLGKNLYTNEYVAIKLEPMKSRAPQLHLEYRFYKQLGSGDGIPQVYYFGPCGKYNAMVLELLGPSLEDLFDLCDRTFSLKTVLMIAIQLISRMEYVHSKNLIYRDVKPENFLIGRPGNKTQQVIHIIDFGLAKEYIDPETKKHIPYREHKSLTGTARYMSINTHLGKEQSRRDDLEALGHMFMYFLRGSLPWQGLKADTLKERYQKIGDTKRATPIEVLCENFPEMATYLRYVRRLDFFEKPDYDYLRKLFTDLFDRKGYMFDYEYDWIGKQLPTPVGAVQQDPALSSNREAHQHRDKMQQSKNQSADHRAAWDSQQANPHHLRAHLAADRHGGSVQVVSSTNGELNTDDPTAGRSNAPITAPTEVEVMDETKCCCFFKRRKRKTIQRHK
Procedure: as §1, §2

DMPK = molecular target: T13, DMPK (Homo sapiens, UniProt Q09013); conditions: read-out: % Retention on Solid Support
T13 construct: purchased DiscoveRx KINOMEscan
Procedure: as §1, §2

EIF2AK1 = molecular target: T14, EIF2AK1 (Homo sapiens, UniProt Q9BQI3); conditions: 1 µM i-CDK9; read-out: % Retention on Solid Support
T14 construct: purchased DiscoveRx KINOMEscan
Procedure: as §1, §2

EPHB1 = molecular target: T15, EPHB1 (Homo sapiens, UniProt P54762); conditions: read-out: % Retention on Solid Support
T15 construct: purchased DiscoveRx KINOMEscan
T15 sequence (P54762 18-984): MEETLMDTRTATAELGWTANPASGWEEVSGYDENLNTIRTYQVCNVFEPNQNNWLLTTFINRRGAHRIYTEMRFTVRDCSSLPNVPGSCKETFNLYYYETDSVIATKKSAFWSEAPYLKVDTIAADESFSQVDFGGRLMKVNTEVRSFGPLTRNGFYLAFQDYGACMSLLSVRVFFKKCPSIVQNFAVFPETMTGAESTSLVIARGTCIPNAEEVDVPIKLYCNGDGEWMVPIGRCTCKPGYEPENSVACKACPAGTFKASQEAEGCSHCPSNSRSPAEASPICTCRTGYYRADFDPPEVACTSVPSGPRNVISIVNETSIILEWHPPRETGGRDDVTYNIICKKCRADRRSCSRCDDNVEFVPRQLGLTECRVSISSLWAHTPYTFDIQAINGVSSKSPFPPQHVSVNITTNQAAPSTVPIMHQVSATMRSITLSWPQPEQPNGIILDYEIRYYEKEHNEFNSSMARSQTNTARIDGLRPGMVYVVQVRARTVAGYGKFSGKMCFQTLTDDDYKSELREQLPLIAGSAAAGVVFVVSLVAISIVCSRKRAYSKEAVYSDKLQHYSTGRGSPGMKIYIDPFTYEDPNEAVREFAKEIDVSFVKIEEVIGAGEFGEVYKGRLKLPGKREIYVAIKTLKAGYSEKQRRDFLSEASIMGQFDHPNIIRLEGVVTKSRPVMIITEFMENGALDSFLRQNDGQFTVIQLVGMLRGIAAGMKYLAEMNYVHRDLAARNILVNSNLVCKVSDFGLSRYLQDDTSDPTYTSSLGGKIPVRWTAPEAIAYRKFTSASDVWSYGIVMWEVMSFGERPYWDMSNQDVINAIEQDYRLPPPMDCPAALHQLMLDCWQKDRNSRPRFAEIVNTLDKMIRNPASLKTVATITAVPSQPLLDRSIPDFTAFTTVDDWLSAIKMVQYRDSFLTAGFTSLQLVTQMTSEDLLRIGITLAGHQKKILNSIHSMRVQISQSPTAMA
Procedure: as §1, §2

EPHB3 = molecular target: T16, EPHB3 (Homo sapiens, UniProt P54753); conditions: read-out: % Retention on Solid Support
T16 construct: purchased DiscoveRx KINOMEscan
Procedure: as §1, §2

FLT3(ITD) = tested on: FLT3(ITD)
Procedure: as §1, §2

FRK = molecular target: T17, FRK (Homo sapiens, UniProt P42685); conditions: read-out: % Retention on Solid Support
T17 construct: purchased DiscoveRx KINOMEscan
Procedure: as §1, §2

GSK3B = molecular target: T18, GSK3B (Homo sapiens, UniProt P49841); conditions: read-out: % Retention on Solid Support
T18 construct: purchased DiscoveRx KINOMEscan
T18 sequence (P49841 whole entry): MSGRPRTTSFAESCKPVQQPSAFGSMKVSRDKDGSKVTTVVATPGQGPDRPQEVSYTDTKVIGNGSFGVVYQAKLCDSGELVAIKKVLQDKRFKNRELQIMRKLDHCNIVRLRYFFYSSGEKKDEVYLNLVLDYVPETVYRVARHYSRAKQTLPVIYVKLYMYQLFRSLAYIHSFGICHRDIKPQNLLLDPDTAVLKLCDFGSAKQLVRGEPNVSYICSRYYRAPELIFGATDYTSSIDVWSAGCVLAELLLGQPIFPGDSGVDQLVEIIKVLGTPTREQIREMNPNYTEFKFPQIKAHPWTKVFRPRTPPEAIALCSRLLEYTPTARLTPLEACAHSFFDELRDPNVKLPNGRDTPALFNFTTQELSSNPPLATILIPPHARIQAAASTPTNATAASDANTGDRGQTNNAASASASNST
Procedure: as §1, §2

HCK = molecular target: T19, HCK (Homo sapiens, UniProt P08631); conditions: read-out: % Retention on Solid Support
T19 construct: purchased DiscoveRx KINOMEscan
T19 sequence (P08631 whole entry): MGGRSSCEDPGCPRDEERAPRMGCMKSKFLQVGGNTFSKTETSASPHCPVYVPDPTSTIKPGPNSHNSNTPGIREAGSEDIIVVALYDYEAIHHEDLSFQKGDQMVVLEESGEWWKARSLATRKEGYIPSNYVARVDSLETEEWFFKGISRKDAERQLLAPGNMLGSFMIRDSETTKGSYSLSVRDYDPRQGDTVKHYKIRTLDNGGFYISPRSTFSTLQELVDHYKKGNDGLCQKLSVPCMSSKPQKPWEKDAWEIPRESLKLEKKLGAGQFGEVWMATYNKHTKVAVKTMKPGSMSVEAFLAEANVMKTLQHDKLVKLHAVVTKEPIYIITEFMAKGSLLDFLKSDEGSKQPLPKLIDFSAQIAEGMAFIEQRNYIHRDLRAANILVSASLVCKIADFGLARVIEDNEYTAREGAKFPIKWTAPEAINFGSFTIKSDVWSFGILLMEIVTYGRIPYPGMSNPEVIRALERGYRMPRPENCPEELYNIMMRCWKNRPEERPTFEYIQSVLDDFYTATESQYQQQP
Procedure: as §1, §2

IRAK3 = molecular target: T20, IRAK3 (Homo sapiens, UniProt Q9Y616); conditions: read-out: % Retention on Solid Support
T20 construct: purchased DiscoveRx KINOMEscan
Procedure: as §1, §2

JNK3 = molecular target: T21, JNK3 (Homo sapiens, UniProt P53779)
T21 construct: purchased DiscoveRx KINOMEscan
T21 sequence (P53779 whole entry): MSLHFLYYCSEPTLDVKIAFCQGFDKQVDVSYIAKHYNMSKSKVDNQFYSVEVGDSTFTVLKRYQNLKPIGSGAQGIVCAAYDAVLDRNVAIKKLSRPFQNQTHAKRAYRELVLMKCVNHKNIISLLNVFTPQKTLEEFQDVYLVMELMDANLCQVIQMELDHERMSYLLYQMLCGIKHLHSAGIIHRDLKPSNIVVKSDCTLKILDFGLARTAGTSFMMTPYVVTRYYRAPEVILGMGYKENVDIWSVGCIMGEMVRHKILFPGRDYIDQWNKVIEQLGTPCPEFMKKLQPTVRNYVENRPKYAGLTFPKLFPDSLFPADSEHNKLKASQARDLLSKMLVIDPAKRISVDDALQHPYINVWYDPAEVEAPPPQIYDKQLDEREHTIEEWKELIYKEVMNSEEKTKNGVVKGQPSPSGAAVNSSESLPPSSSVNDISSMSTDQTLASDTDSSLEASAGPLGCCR
Procedure: as §1, §2

KIT = molecular target: T22, KIT (Homo sapiens, UniProt P10721); conditions: read-out: % Retention on Solid Support
T22 construct: purchased DiscoveRx KINOMEscan
Procedure: as §1, §2

LZK = molecular target: T23, LZK (Homo sapiens, UniProt O43283)
T23 construct: purchased DiscoveRx KINOMEscan
Procedure: as §1, §2

MAP3K2 = molecular target: T24, MAP3K2 (Homo sapiens, UniProt Q9Y2U5); conditions: read-out: % Retention on Solid Support
T24 construct: purchased DiscoveRx KINOMEscan
Procedure: as §1, §2

PAK3 = molecular target: T25, PAK3 (Homo sapiens, UniProt O75914); conditions: read-out: % Retention on Solid Support
T25 construct: purchased DiscoveRx KINOMEscan
Procedure: as §1, §2

PIK3CA(E545K) = molecular target: T26, PIK3CA(E545K) (Homo sapiens, UniProt P42336, E545K); conditions: read-out: % Retention on Solid Support
T26 construct: purchased DiscoveRx KINOMEscan
Procedure: as §1, §2

QSK = molecular target: T27, QSK (Homo sapiens, UniProt Q9Y2K2)
T27 construct: purchased DiscoveRx KINOMEscan
Procedure: as §1, §2

[3] = molecular target: RPS6KA5(Kin.Dom.2-C-terminal) (Homo sapiens, UniProt O75582); conditions: read-out: % Retention on Solid Support
Procedure: as §1, §2

STK33 = molecular target: T28, STK33 (Homo sapiens, UniProt Q9BYT3); conditions: read-out: % Retention on Solid Support
T28 construct: purchased DiscoveRx KINOMEscan
Procedure: as §1, §2

p38-gamma = molecular target: T29, p38-gamma (Homo sapiens, UniProt P53778); conditions: read-out: % Retention on Solid Support
T29 construct: purchased DiscoveRx KINOMEscan
T29 sequence (P53778 whole entry): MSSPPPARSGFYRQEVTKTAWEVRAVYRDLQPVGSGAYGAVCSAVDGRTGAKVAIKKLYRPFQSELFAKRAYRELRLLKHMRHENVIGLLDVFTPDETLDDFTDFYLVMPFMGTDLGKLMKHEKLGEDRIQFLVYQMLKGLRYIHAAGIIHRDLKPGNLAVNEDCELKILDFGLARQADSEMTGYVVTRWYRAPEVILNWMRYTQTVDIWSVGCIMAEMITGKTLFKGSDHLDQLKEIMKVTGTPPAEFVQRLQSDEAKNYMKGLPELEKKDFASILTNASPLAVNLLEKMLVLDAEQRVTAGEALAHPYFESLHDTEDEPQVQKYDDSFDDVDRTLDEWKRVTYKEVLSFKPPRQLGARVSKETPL
Procedure: as §1, §2

SMILES: N[C@H]1CC[C@H](Nc2cc(-c3cccc(NCc4cccc(F)c4)n3)c(Cl)cn2)CC1 [i-CDK9, N2′-(trans-4-aminocyclohexyl)-5′-chloro-N6-(3-fluorobenzyl)-2,4′-bipyridine-2′,6-diamine]
- remaining binding at 1 µM [1]: 100%
- remaining binding at 1 µM [2]: 92%
- remaining binding at 1 µM (ACVR1B; 1 µM i-CDK9): 69%
- remaining binding at 10 µM (ACVR1B; 10 µM i-CDK9): 100%
- remaining binding at 1 µM (BIKE; 1 µM i-CDK9): 100%
- remaining binding at 10 µM (BIKE; 10 µM i-CDK9): 63%
- remaining binding at 1 µM (CAMK2G; 1 µM i-CDK9): 100%
- remaining binding at 10 µM (CAMK2G; 10 µM i-CDK9): 100%
- remaining binding at 1 µM (CAMKK2; 1 µM i-CDK9): 73%
- remaining binding at 10 µM (CAMKK2; 10 µM i-CDK9): 100%
- % Retention on Solid Support (CDC2L5): 100%
- % binding to immobilized ligand (CDK13): 100%
- % Retention on Solid Support (CDK2; 1 µM i-CDK9): 85%
- % Retention on Solid Support (CDK2; 10 µM i-CDK9): 19%
- remaining binding at 1 µM (CDK4-cyclinD1): 100%
- % Retention on Solid Support (CSK; 1 µM i-CDK9): 100%
- % Retention on Solid Support (CSK; 10 µM i-CDK9): 100%
- % Retention on Solid Support (CSNK1G3; 1 µM i-CDK9): 91%
- % Retention on Solid Support (CSNK1G3; 10 µM i-CDK9): 63%
- remaining binding at 1 µM (DMPK; 1 µM i-CDK9): 100%
- remaining binding at 10 µM (DMPK; 10 µM i-CDK9): 20%
- remaining binding at 1 µM (EIF2AK1): 85%
- remaining binding at 1 µM (EPHB1; 1 µM i-CDK9): 100%
- remaining binding at 10 µM (EPHB1; 10 µM i-CDK9): 100%
- remaining binding at 1 µM (EPHB3; 1 µM i-CDK9): 100%
- remaining binding at 10 µM (EPHB3; 10 µM i-CDK9): 95%
- % Retention on Solid Support (FLT3(ITD); 1 µM i-CDK9): 100%
- % Retention on Solid Support (FLT3(ITD); 10 µM i-CDK9): 72%
- remaining binding at 1 µM (FRK; 1 µM i-CDK9): 72%
- remaining binding at 10 µM (FRK; 10 µM i-CDK9): 100%
- remaining binding at 1 µM (GSK3B; 1 µM i-CDK9): 79%
- remaining binding at 10 µM (GSK3B; 10 µM i-CDK9): 74%
- remaining binding at 1 µM (HCK; 1 µM i-CDK9): 81%
- remaining binding at 10 µM (HCK; 10 µM i-CDK9): 100%
- remaining binding at 1 µM (IRAK3; 1 µM i-CDK9): 100%
- remaining binding at 10 µM (IRAK3; 10 µM i-CDK9): 88%
- % Retention on Solid Support (JNK3; 1 µM i-CDK9): 94%
- % Retention on Solid Support (JNK3; 10 µM i-CDK9): 34%
- remaining binding at 1 µM (KIT; 1 µM i-CDK9): 91%
- remaining binding at 10 µM (KIT; 10 µM i-CDK9): 100%
- % Retention on Solid Support (LZK; 1 µM i-CDK9): 100%
- % Retention on Solid Support (LZK; 10 µM i-CDK9): 100%
- remaining binding at 1 µM (MAP3K2; 1 µM i-CDK9): 23%
- remaining binding at 10 µM (MAP3K2; 10 µM i-CDK9): 100%
- remaining binding at 1 µM (PAK3; 1 µM i-CDK9): 100%
- remaining binding at 10 µM (PAK3; 10 µM i-CDK9): 98%
- remaining binding at 1 µM (PIK3CA(E545K); 1 µM i-CDK9): 100%
- remaining binding at 10 µM (PIK3CA(E545K); 10 µM i-CDK9): 95%
- % Retention on Solid Support (QSK; 1 µM i-CDK9): 7.4%
- % Retention on Solid Support (QSK; 10 µM i-CDK9): 92%
- remaining binding at 1 µM ([3]; 1 µM i-CDK9): 100%
- remaining binding at 10 µM ([3]; 10 µM i-CDK9): 100%
- remaining binding at 1 µM (STK33; 1 µM i-CDK9): 88%
- remaining binding at 10 µM (STK33; 10 µM i-CDK9): 100%
- remaining binding at 1 µM (p38-gamma; 1 µM i-CDK9): 100%
- remaining binding at 10 µM (p38-gamma; 10 µM i-CDK9): 100%
